Test results from article PMC5701137, “Discovery of novel choline acetyltransferase inhibitors using structure-based virtual screening” (Scientific Reports, 2017).
pIC50, pKi: −log10 of the molar value.

Tests used:
Assay type in all cases: biochemical
human rChAT = biological target: T1, human rChAT (Homo sapiens, UniProt P28329); test: In vitro ChAT activity inhibition fluorometric assay and kinetic studies; conditions: 100 µM compound; compared to control; mean of three experiments in triplicate; read-out: ChAT % IR (inhibition rate)
T1 construct: made in house; host or cells: E. coli BL21 Rosetta2
T1 sequence (P28329 1-630 isoform P28329-3): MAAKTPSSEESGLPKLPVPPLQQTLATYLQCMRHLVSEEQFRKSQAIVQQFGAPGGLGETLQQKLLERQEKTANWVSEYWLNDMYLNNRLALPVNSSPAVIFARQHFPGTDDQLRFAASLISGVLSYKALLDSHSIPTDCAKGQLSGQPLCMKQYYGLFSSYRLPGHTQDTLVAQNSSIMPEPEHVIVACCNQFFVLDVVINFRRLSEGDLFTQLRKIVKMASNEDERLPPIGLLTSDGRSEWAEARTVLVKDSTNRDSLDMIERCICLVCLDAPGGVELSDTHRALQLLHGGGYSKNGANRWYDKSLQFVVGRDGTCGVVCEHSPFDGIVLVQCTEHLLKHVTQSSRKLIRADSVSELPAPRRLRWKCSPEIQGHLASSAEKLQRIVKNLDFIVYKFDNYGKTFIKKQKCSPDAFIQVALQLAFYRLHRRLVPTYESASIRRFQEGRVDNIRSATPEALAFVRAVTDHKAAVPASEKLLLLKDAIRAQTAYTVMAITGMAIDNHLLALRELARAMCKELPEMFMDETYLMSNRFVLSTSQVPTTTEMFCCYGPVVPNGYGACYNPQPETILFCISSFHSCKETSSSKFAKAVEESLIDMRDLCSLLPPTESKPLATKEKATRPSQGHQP
Method: ChAT activity was measured using our newly developed fluorometric assay, using human recombinant ChAT (rChAT) protein. The reagents, choline chloride, acetyl coenzyme-A (ACoA, A2181) and 7-Diethylamino-3-(4-maleimidophenyl)-4-methylcoumarin (CPM) were purchased from Sigma-Aldrich (St. Louis, MO, USA).
The ChAT assay could be run in either 96-well or 384-well plates. For 96-well plates, 50 μL/well of 0.212 µg/ml (final concentration) of the recombinant ChAT was incubated with 100 μM different Asinex compounds (50 μL/well) for 10–30 minutes at room temperature in dilution buffer (10 mM Tris-HCl, pH 7.4, 150 mM NaCl, 1.0 mM EDTA, 0.05% (v/v) Triton X-100). Then, 50 µL of a cocktail-A [dilution buffer containing choline chloride (final concentration 150 µM), ACoA (final concentration 13.3 µM) and CPM (final concentration 15 µM)] was added to each well. Immediately after adding the cocktail-A, the changes in fluorescence was monitored kinetically at 479 nm after exciting at 390 nm at 1–2 minute intervals for 15–20 minutes using a microplate spectrophotometer reader (Infinite M1000, Tecan).
Each Asinex compounds were run in triplicates. On each 96-wells plate, several enzyme wells without inhibitor were also included during measurements as control and for estimating the inhibition level. Negative controls were wells without enzyme. The percentage inhibition for each Asinex compound was calculated based on the enzyme control value as a reference (100% activity). The compounds showing over 50% inhibition of enzyme activity were selected for further kinetic studies.
(§1) For kinetic studies, a similar protocol as inhibition assay was followed; a dilution series of five different concentrations ranging from 10^−6 to 10^−9 M were prepared for each selected Asinex compounds. For ChAT, the A-CoA was kept constant at 10 μM (final) but the concentration of choline chloride varied between 320–10 μM. For BuChE, BTC was used as the substrate in the concentrations ranging from 0.0625 to 2 mM. For AChE, ATC was used as the substrate in the concentrations ranging from 0.0312 to 1 mM. Each compound concentration was measured in duplicates. The rate of enzyme activity (as ∆OD/hr kinetic data) was calculated and processed using the GraphPad Prism 7 analysis software. The inhibitory constant (Ki) values were determined from the dose-response curve and the half-maximal inhibitory concentration (IC50) values were calculated by plotting the percentage enzyme activity vs. the log of the Asinex compound concentrations and fitting the data using the nonlinear regression Enzyme Kinetics-Inhibition function.
The Michaelis-Menten constant (Km) and maximal velocity (Vmax) values were calculated from substrate-velocity curve after fitting the data with non-linear regression Michaelis-Menten kinetic function. The Km and Vmax values were further used to plot the Lineweaver-Burk plots; the plots were fitted using linear regression function.

recombinant human AChE = biological target: T2, recombinant human AChE (Homo sapiens, UniProt P22303); test: Modified Ellman's colorimetric assay for AChE and kinetic studies; conditions: for inhibition at 200 µM: 200 µM compound, compared to control, mean of three experiments in triplicate, read-out: AChE % IR (inhibition rate); for pKi / pIC50: mean of two experiments; for pIC50: substrate ATC 0.5 mM
T2 construct: purchased Sigma C1682
Text: (§2) A modified version of Ellman’s colorimetric assay[16],[17] was adapted to a high throughput assay for the enzymatic activity of BuChE and AChE. The reagent, butyrylthiocholine iodide (BTC), acetylthiocholine iodide (ATC), 5,5′-dithiobis (2-nitrobenzoic acid) (DTNB) were purchased from Sigma-Aldrich (St. Louis, MO, USA). The modified assay details are as previously described[34],[35]. The main modification concerned with the high throughput adaptation of the assay for use in 384-well plates. Briefly, 25 μL/well of a 1:450 diluted solution of a pooled human plasma and 1:768 diluted (3.5 ng/ml final concentration) purified recombinant human AChE protein (Sigma, Cat no. C1682) was used for measurement of BuChE and AChE activity, respectively. In the initial in vitro screening step, the wells were pre-incubated with 25 μL/wells of different Asinex compounds for 10–30 minutes at room temperature. The concentration of the compounds working solution was 3X to give a final concentration of 200 μM in a final volume of 75 μL in each well. The stock concentration of the compounds were prepared in 100% DMSO. The stock concentration was chosen usually at 10 mM, allowing the final DMSO concentration in the wells to be less than 4%. Finally, 25 μL of a cocktail mix prepared in Na/K phosphate buffer, containing DTNB (final concentration 0.4 mM) and BTC, (final concentration 1 mM) or ATC (final concentration 0.5 mM) was added to each well and the changes in absorbance was monitored at 412 nm wavelength for 15–20 minutes with one-minute interval, using a microplate spectrophotometer reader (Infinite M1000, Tecan). The rate of the enzyme activity was determined from the linear part of the kinetic reaction curves as ∆OD/time.
as §1

plasma BuChE = biological target: T3, plasma BuChE (Homo sapiens, UniProt P06276); test: Modified Ellman's colorimetric assay for BuChE (pooled human plasma) and kinetic studies; conditions: 200 µM compound; compared to control; mean of three experiments in triplicate; read-out: BuChE % IR (inhibition rate)
T3 construct: 1:450 diluted solution of a pooled human plasma; from tissue; host or cells: pooled human plasma
Text: as §2, §1

T2 sequence (P22303 32-614): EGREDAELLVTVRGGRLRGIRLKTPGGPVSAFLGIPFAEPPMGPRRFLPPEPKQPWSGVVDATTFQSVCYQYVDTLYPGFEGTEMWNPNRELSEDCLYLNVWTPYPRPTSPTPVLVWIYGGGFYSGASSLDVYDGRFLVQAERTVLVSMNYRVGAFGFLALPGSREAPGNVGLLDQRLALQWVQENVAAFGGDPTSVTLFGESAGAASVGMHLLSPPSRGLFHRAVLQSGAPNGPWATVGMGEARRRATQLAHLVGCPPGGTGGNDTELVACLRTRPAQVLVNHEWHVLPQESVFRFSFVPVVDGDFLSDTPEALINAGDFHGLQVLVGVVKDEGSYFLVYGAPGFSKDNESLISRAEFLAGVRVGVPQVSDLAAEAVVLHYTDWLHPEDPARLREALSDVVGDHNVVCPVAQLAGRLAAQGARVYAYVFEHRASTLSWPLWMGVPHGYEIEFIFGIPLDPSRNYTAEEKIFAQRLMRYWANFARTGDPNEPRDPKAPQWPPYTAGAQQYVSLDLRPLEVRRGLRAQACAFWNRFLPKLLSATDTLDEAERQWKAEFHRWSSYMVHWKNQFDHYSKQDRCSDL
T3 sequence (P06276 29-602): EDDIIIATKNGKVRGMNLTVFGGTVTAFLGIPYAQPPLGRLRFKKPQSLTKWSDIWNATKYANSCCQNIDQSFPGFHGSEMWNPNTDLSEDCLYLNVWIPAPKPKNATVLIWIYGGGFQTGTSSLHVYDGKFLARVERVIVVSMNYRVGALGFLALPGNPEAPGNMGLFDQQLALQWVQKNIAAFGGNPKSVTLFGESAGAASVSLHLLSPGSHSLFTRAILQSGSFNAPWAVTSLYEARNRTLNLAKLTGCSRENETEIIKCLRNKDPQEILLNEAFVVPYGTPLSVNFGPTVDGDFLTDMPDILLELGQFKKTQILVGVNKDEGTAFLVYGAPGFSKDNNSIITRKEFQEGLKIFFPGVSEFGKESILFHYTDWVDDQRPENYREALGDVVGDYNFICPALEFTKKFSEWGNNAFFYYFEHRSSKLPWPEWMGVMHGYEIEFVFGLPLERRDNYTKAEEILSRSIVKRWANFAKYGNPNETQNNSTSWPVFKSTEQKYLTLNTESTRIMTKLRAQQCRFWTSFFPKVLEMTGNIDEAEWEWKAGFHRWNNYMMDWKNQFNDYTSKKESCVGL

Cc1c(C)n(C(=O)CSc2nnc(-c3ccccc3)o2)c2ccccc12 [Compound A4]
inhibition at 100 µM (human rChAT): 26.7% | inhibition at 200 µM (recombinant human AChE): 0% | inhibition at 200 µM (plasma BuChE): 14.4%

COc1ccccc1N1CCN(c2nc(-c3ccc(C)cc3)cc(=O)[nH]2)CC1 [Compound B6]
inhibition at 100 µM (human rChAT): 7.6% | inhibition at 200 µM (recombinant human AChE): 2.6% | inhibition at 200 µM (plasma BuChE): 11%

COc1ccc(-c2nnc(-c3cc4c(ccc5ccccc54)oc3=O)o2)cc1 [Compound C6]
inhibition at 200 µM (recombinant human AChE): 33.1% | inhibition at 200 µM (plasma BuChE): 34.7%

C=C(C)CN1N=C(C)Cn2c1nc1c2c(=O)n(C/C=C/c2ccccc2)c(=O)n1C [Compound E5]
inhibition at 100 µM (human rChAT): 0% | inhibition at 200 µM (recombinant human AChE): 4.1% | inhibition at 200 µM (plasma BuChE): 12.8%

Cc1onc(-c2ccccc2Cl)c1C(=O)N1CCN(Cc2ccc3c(c2)OCO3)CC1 [Compound E7]
inhibition at 100 µM (human rChAT): 0% | inhibition at 200 µM (recombinant human AChE): 0.5% | inhibition at 200 µM (plasma BuChE): 37.5%

COc1cccc(OCC(=O)Nc2cc3oc4ccccc4c3cc2OC)c1 [Compound E4]
inhibition at 100 µM (human rChAT): 4.8% | inhibition at 200 µM (recombinant human AChE): 1.5% | inhibition at 200 µM (plasma BuChE): 11.7%

O=C(Nc1ccc(CN2CCOCC2)cc1)c1ccc2c(c1)[nH]c(=O)n2CCc1ccccc1 [Compound B7]
inhibition at 100 µM (human rChAT): 13.3% | pKi (recombinant human AChE): 4.18 | pIC50 (recombinant human AChE): 4.40 | inhibition at 200 µM (plasma BuChE): 14.9%

COc1cc(OC)cc(C(=O)N2CCN(C(=O)C(c3ccccc3)c3ccccc3)CC2)c1 [Compound A1]
inhibition at 100 µM (human rChAT): 0% | inhibition at 200 µM (recombinant human AChE): 0% | inhibition at 200 µM (plasma BuChE): 4.8%

COc1ccc(NC(=O)Cn2nc(C(F)(F)F)c3c2CCCC3)c(OC)c1 [Compound D5]
inhibition at 100 µM (human rChAT): 0% | inhibition at 200 µM (recombinant human AChE): 4.2% | inhibition at 200 µM (plasma BuChE): 7.8%

Clc1cccc(N2CCN(Cc3nnn(Cc4ccco4)n3)CC2)c1 [Compound A7]
inhibition at 100 µM (human rChAT): 7.2% | inhibition at 200 µM (recombinant human AChE): 15.8% | inhibition at 200 µM (plasma BuChE): 29.9%

CC(=O)c1ccc(NC(=O)CN2CCN(c3cccc(C)c3C)CC2)cc1 [Compound D2]
inhibition at 100 µM (human rChAT): 0% | inhibition at 200 µM (recombinant human AChE): 18.1% | inhibition at 200 µM (plasma BuChE): 7%

CCn1c(CNC(=O)COc2ccc(Cl)cc2)cc2ccccc21 [Compound C3]
inhibition at 100 µM (human rChAT): 0% | inhibition at 200 µM (recombinant human AChE): 22% | inhibition at 200 µM (plasma BuChE): 20.1%

COc1ccc(CC(=O)Nc2cc3oc4ccccc4c3cc2OC)cc1 [Compound B3]
inhibition at 100 µM (human rChAT): 0% | inhibition at 200 µM (recombinant human AChE): 0% | inhibition at 200 µM (plasma BuChE): 16.6%

Cc1cc2nc(C3CCN(CC(=O)Nc4ccccc4)CC3)[nH]c2cc1C [Compound A6]
inhibition at 100 µM (human rChAT): 0% | inhibition at 200 µM (recombinant human AChE): 11.9% | inhibition at 200 µM (plasma BuChE): 20.2%

CCOc1ccc2[nH]c(=O)c(CN(Cc3ccccc3)C(=O)N3CCCC3)cc2c1 [Compound D7]
inhibition at 100 µM (human rChAT): 0% | inhibition at 200 µM (recombinant human AChE): 27.7% | inhibition at 200 µM (plasma BuChE): 22.4%

COc1ccc(-c2cc(C(F)(F)F)nc(SCCC(=O)N3CCN(C)CC3)n2)cc1 [Compound D6]
inhibition at 100 µM (human rChAT): 4.8% | inhibition at 200 µM (recombinant human AChE): 0% | inhibition at 200 µM (plasma BuChE): 9.3%

CN(C(=O)COc1ccc(-c2nn(C)c(=O)c3ccccc23)cc1)C1CCCCC1 [Compound C1]
inhibition at 100 µM (human rChAT): 0% | pKi (recombinant human AChE): 4.37 | pIC50 (recombinant human AChE): 4.14 | inhibition at 200 µM (plasma BuChE): 9.8%

COc1cc(CN2CCC(C(=O)N3CCC(C)CC3)CC2)ccc1OCc1ccccc1 [Compound B5]
inhibition at 100 µM (human rChAT): 0% | inhibition at 200 µM (recombinant human AChE): 26.1% | inhibition at 200 µM (plasma BuChE): 39.5%

COCCNc1c(-c2cc3cc(C)ccc3[nH]c2=O)nc2ccc(Cl)cn12 [Compound C7]
inhibition at 100 µM (human rChAT): 0% | inhibition at 200 µM (recombinant human AChE): 15.7% | inhibition at 200 µM (plasma BuChE): 29.4%

CC1(C)CC(=O)C(=CNCC2CCN(C(=O)Cc3ccc(Cl)cc3)CC2)C(=O)C1 [Compound A5]
inhibition at 100 µM (human rChAT): 2.1% | inhibition at 200 µM (recombinant human AChE): 7% | inhibition at 200 µM (plasma BuChE): 9.2%

O=C(CSc1nnc(-c2cccc(F)c2)o1)N1CCC(Cc2ccccc2)CC1 [Compound E3]
inhibition at 100 µM (human rChAT): 10.3% | inhibition at 200 µM (recombinant human AChE): 10.2% | inhibition at 200 µM (plasma BuChE): 23%

CCc1ccccc1NC(=O)CSc1nnc(-c2cccnc2)n1CC [Compound E2]
inhibition at 100 µM (human rChAT): 4.1% | inhibition at 200 µM (recombinant human AChE): 2.7% | inhibition at 200 µM (plasma BuChE): 12%

Cc1ccccc1OCC(=O)Oc1ccc2c(C)cc(=O)oc2c1 [Compound E6]
inhibition at 100 µM (human rChAT): 2.5% | inhibition at 200 µM (recombinant human AChE): 0% | inhibition at 200 µM (plasma BuChE): 13.2%

CCOC(=O)c1sc2ncn(CCc3ccccc3)c(=O)c2c1C [Compound A3]
inhibition at 100 µM (human rChAT): 6.9% | inhibition at 200 µM (recombinant human AChE): 0% | inhibition at 200 µM (plasma BuChE): 15.1%

COc1ccc(Cl)cc1NC(=O)CCN1CCN(c2ccccc2C)CC1 [Compound B2]
inhibition at 100 µM (human rChAT): 0% | inhibition at 200 µM (recombinant human AChE): 0% | inhibition at 200 µM (plasma BuChE): 18.5%

Cc1cccc(N2CCN(CC(=O)Nc3ccc(C)c(F)c3)CC2)c1 [Compound D1]
inhibition at 100 µM (human rChAT): 0% | inhibition at 200 µM (recombinant human AChE): 0% | inhibition at 200 µM (plasma BuChE): 20%
